According to US12673052B2, “Combinations for the treatment of cancer” (Exelixis, Inc., priority 2020, dated 2026):
“And” between values parts separate entries of the source, which are not always exact repeats. Equal values may be shown once.

Columns and labels:
[1] = Single-dose plasma PK, IV and oral (PEG 400:EtOH:RO water); format: in vivo, dogs
Protocol: Plasma PK of Compound 1 was characterized in rats and beagle dogs. Toxicokinetic (TK) evaluations of oral Compound 1 were evaluated in repeat-dose studies in rats and dogs. Plasma protein binding was determined in mouse, rat, dog, monkey, and human plasma in vitro. Biotransformation and metabolite profiling of Compound 1 were investigated in vitro using mouse, rat, dog, monkey, and human liver microsomal fractions and hepatocytes and in vivo in rats and dogs. P-glycoprotein (P-gp) and breast cancer resistance protein (BCRP) transporter interaction studies, in vitro experiments evaluating cytochrome P450 (CYP) induction and inhibition by Compound 1, and CYP and glucuronosyltransferase (UGT) substrate specificity studies of Compound 1 were also performed.
The PK and TK of Compound 1 were assessed in rats and dogs after intravenous (IV; only single dose PK) and oral (PO) administration of Compound 1 in formulations prepared in polyethylene glycol 400 (PEG 400): ethanol (EtOH): reverse osmosis water (RO Water) (45:5:50 v/v/v).
Median time to maximum plasma concentration (Tmax) occurred at approximately 2-3 hours in rats and dogs.
(§1) The mean plasma t1/2, z values were approximately 9 hours in rats and 4 hours in dogs. Interspecies scaling based on body weight to predict PK parameters in humans could not be performed because dogs (larger species) cleared Compound 1 faster than rats (smaller species). Therefore, the human PK was projected based on one species (rat). […] This apparent clearance value (CL/F) was used to predict steady-state exposure (AUC and average plasma concentration [Cavg]) in humans for the proposed first-in-human (FIH) starting dose for Study Compound 1-001.

[2] = Toxicokinetics in 28-day repeat-dose toxicity study; format: in vivo, dogs; conditions: for half-life: oral
Protocol: In a 28-day repeat-dose toxicity study in dogs dosed orally daily with Compound 1 at 2, 6 and 18 mg/kg, high variability in Compound 1 exposure was generally observed for all dose levels on Days 1 and 28. Across the dose range evaluated, the mean % CV for Cmax and AUC0-24 was 46.2-93.2% and 45.5-91%, respectively, on Day 1 and 39.3-53.9% and 36.2-51.1%, respectively, on Day 28.

[3] = Tablet versus PIB formulation, single oral 20 mg dose, parallel design; format: in vivo, dogs; conditions: for half-life: po, read-out: t1/2, z (mean) (converted)
Protocol: In a parallel design study with a total of 24 dogs (1:1 treatment allocation ratio), Group 1 received Compound 1 as a 20-mg oral tablet and Group 2 received a 20-mg reconstituted oral suspension of the PIB formulation. For each dose group, blood samples were collected from each animal at pre-dose and up to 24 hours post-dose for Compound 1 plasma concentration measurements.

[4] = Permeability in Caco-2 cells; format: in vitro ADME; conditions: human, highly permeable, read-out: apparent permeability coefficient (Papp)
[5] = Liver microsomal stability assay; format: in vitro ADME, human; conditions: liver microsomes
Protocol: (§2) In the liver microsomal stability assay, CLint was 0.601 mL/min/g liver in mouse, 0.563 mL/min/g liver in rat, 0.315 mL/min/g liver in dog, 0.734 mL/min/g liver in monkey, and 0.639 mL/min/g liver in human. In the hepatocyte stability assay, Compound 1 CLint was 0.373 mL/min/g liver in mouse, 0.285 mL/min/g liver in rat, 1.08 mL/min/g liver in dog, 0.533 mL/min/g liver in monkey, and 0.317 mL/min/g liver in human.

[6] = Hepatocyte stability assay; format: in vitro ADME, human; conditions: hepatocytes
Protocol: as §1, §2

mammalian cell = assay: In vitro mammalian cell genotoxicity bioassay; format: cell-based
Protocol: The nonclinical toxicity of Compound 1 was characterized in dose range-finding 7-day and definitive 28-day repeat-dose studies in rats and dogs, and in in vitro bacterial and mammalian genotoxicity bioassays. Compound 1 was also evaluated in definitive neurobehavioral, respiratory and cardiovascular safety pharmacology studies.
Compound 1 was negative in in vitro bacterial and mammalian cell genotoxicity bioassays.

[7] = Projection of human PK and steady-state exposure based on one species (rat)
Protocol: as §1
The steady-state exposure of Compound 1 in humans for the proposed clinical starting dose of 10 mg daily was projected. At this dose, Compound 1 is projected to yield exposures 54-fold lower than those at the highest non-severely toxic dose (HNSTD) in rats (10 mg/kg qd), the highest dose tested in the GLP 4-week toxicity study. […] Compound 1-related findings at the 10 mg/kg/day dose included bile duct inflammation, hyperplasia and individual hepatocyte necrosis (generally minimal-mild) which were fully reversible following 14 days recovery, as were correlative <2-fold aspartate aminotransferase (AST) and <5-fold alanine aminotransferase (ALT) increases.

[8] = test system: primary human macrophages; assay: Efferocytosis: primary human macrophages cultured with apoptotic Jurkat cells; format: cell-based; conditions: read-out: Cellular IC50 (nM) (n = 2); one row per donor (#1-#5); geometric mean +/− geometric standard deviation
Protocol: In addition, the TAM RTKs are critical in the process of efferocytosis, or the recognition and phagocytosis of apoptotic cells that maintains normal tissue homeostasis. When efferocytosis is inhibited, macrophages engage a proinflammatory activation response. When primary human macrophages are cultured with apoptotic Jurkat cells in the presence of Compound 1, their phagocytic ability was inhibited in a dose dependent manner. In Table 5, the IC50 from 5 independent donors are listed.

MET = MET (Homo sapiens, UniProt P08581); assay: In vivo target modulation: MET phosphorylation by Western blot in SNU-5 xenografts; design: endogenous in cells; host or cells: SNU-5 human tumour xenografts in CB.17 SCID mice; species or system CB.17 SCID mice; conditions: for Compound 1 Plasma Exposure: qd × 14, 4 hours after last dose on Day 14
Protocol: Three human tumor cell lines, NCI-H441, MDA-MB-231, and SNU-5, were selected for use in tumor xenograft studies using athymic nude, NSG and CB.17 SCID mice, respectively. Pharmacodynamic modulation of MET phosphorylation was also measured in the NCI-H441 and SNU-5 xenografts. Tumor-bearing mice were orally dosed once-daily for 14 days (qd×14), and the tumors were resected and processed for MET phosphorylation analysis by Western blot. […]

[9] = SNU-5, mouse, po, read-out: p-MET Inhibition %

Chain of MET (P08581 25-1390): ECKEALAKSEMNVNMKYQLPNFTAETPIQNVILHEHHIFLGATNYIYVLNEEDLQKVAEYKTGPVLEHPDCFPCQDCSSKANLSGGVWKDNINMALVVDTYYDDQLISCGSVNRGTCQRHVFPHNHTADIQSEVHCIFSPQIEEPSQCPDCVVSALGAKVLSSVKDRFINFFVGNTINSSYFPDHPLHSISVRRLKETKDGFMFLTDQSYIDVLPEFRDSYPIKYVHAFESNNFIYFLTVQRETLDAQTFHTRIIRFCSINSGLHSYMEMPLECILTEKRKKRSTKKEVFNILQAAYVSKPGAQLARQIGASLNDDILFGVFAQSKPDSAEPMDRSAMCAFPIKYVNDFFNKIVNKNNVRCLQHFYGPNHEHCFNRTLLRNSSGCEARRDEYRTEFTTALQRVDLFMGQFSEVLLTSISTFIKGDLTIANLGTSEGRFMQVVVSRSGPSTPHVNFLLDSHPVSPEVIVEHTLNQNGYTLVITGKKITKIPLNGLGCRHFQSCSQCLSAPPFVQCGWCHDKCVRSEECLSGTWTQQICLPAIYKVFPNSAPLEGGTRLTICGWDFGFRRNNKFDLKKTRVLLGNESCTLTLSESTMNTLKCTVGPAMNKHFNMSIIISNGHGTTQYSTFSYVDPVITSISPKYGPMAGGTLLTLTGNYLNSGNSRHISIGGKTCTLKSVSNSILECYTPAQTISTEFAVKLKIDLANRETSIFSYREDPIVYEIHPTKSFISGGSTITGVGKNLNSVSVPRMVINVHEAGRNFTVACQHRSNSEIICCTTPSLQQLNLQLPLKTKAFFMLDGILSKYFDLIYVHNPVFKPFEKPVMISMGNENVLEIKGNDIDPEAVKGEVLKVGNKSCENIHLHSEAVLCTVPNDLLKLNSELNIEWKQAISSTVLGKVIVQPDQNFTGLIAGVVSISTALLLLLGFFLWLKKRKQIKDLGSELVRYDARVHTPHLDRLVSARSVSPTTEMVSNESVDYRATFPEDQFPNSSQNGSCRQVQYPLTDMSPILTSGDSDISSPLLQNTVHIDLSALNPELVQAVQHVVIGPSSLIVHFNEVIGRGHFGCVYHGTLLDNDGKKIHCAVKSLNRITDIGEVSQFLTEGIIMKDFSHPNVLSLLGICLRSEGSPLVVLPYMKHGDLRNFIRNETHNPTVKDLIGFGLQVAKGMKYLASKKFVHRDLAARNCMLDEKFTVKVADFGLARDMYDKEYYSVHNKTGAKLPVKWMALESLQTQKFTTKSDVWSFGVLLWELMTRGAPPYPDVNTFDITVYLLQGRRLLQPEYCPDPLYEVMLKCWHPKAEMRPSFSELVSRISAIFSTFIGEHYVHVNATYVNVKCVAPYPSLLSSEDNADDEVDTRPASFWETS

Work on CNC(=O)c1cc2c(Oc3ccc(NC(=O)C4(C(=O)Nc5ccc(F)cc5)CC4)cc3)ccnc2cc1OC [Compound 1, 1-N′-(4-Fluorophenvl)-1-N-[4-[7-methoxy-6-(methylcarbamovl)quinolin-4-yl]oxyphenyl]cyclopropane-1,1-dicarboxamide] yielded a bioavailability ([1]; beagle, dog, plasma, po, 0.2-0.6 mg/kg, read-out: Oral absolute bioavailability) of 47 to 70%, a half-life ([1]; beagle, dog, plasma, after oral administration, read-out: terminal phase half-life (t1/2, z)) of 1 to 3 h and a Tmax ([1]; beagle, dog, plasma, single oral dose, read-out: Median time to maximum plasma concentration (Tmax)) of 2 to 3 h. For the same molecule, the clearance ([1]; beagle, dog, plasma, single-dose IV 0.2-0.6 mg/kg, read-out: mean plasma clearance (CL) (converted)) was 6.33 mL/min/kg, the half-life ([1]; beagle, dog, plasma, single-dose IV, read-out: mean plasma t1/2, z (converted)) was ~4 h and the Vd ([1]; beagle, dog, plasma, single-dose IV, read-out: mean volume of distribution at steady-state (Vss)) was 1.98 L/kg. For the same molecule, the “plasma clearance in dogs relative to rats” value ([1]; higher in dogs than in rats) was “approximately 16 fold”, the “increase of exposure (Cmax and AUC0-inf) with dose” value ([1]; single oral doses 0.2-0.6 mg/kg) was “approximately dose proportionally” and the “mean accumulation ratio for AUC0-24” value ([2]; 18 mg/kg dose level) was 0.874. The “mean accumulation ratio for Cmax” value ([2]; 18 mg/kg dose level) was 0.891, the “mean accumulation ratio for AUC0-24” value ([2]; 2 and 6 mg/kg dose levels) was 1.57-3.38 and the “mean accumulation ratio for Cmax” value ([2]; 2 and 6 mg/kg dose levels) was 1.67-4.75. For the same molecule, the “Sex differences in mean Cmax and AUC0-24 values” ([2]; 28-day study) was “less than 2 fold”, the half-life ([2]; both sexes, dog, plasma, Day 1) was 4.57 to 6.29 h and the half-life ([2]; both sexes, dog, plasma, Day 28) was 3.96 to 5.23 h. For the same molecule, the Tmax ([2]; both sexes, dog, plasma, oral gavage 2, 6 and 18 mg/kg, Days 1 and 28, read-out: median Tmax) was 2 h, the “mean AUC0-24 of PIB formulation higher than tablet formulation” value ([3]; 20 mg single oral dose) was 49% and the “mean Cmax of PIB formulation higher than tablet formulation” value ([3]; 20 mg single oral dose) was 61%. The Tmax ([3]; beagle, dog, plasma, oral, 20 mg, both formulations (PIB and tablet), read-out: median tmax) was 3 h, the half-life ([3]; beagle, dog, plasma, 20 mg, 20 mg reconstituted oral suspension of PIB formulation) was 4.85 h and the half-life ([3]; beagle, dog, plasma, 20 mg, 20-mg oral tablet) was 5.66 h. The Papp [4] was 3.83 ×10⁻⁶ cm/s, the CLint [5] was 0.639 mL/min/g liver and the CLint [6] was 0.317 mL/min/g liver. For the same molecule, the genotoxicity (mammalian cell) was “negative”, the “projected apparent CL (CL/F) after oral administration in human” value ([7]; assuming rat CL=23.4 mL/hr/kg and F=70%) was 0.557 mL/min/kg and the “projected apparent CL (CL/F) after oral administration in human” value ([7]; for a 70-kg human) was 2338 mL/h. For the same molecule, the “projected human exposure lower than exposure at HNSTD in rats” value ([7]; proposed clinical starting dose of 10 mg daily vs 10 mg/kg qd in rats) was 54 fold, the IC50 [8] was 42.7 nM and 45.1 nM and 44 nM and 96.5 nM and 181 nM and the “Compound 1 Plasma Exposure” value (MET; 3 mg/kg) was 1.88 µM. The “Compound 1 Plasma Exposure” value (MET; 10 mg/kg) was 7.64 µM, the inhibition at 3 mg/kg (MET; [9]) was 26% and the inhibition at 10 mg/kg (MET; [9]) was 67%.
